Assay results from US20240217963A1, “RECEPTOR-INTERACTING PROTEIN 1 INHIBITORS, PREPARATIONS, AND USES THEREOF” (SIRONAX LTD., priority 2021, published 2024).

Target: T1, RIP1 (Homo sapiens, UniProt Q13546)
T1 sequence (Q13546 1-671): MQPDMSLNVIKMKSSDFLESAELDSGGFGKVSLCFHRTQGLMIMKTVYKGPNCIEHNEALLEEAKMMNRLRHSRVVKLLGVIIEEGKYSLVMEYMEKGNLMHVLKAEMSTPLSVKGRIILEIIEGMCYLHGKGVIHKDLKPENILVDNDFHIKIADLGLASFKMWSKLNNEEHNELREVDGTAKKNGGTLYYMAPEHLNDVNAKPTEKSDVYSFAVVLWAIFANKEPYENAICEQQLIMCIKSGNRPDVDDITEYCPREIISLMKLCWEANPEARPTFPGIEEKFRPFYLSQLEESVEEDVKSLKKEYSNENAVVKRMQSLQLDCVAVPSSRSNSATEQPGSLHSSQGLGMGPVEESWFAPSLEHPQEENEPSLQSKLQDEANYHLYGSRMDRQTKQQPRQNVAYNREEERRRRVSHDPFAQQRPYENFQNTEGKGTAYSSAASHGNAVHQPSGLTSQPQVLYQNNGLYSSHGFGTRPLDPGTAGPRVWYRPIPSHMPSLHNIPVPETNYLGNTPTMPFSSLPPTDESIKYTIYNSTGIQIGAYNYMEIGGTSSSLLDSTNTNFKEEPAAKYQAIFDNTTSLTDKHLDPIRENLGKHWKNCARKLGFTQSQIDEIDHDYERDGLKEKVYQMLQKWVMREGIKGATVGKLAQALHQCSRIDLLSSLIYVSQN
Assay: Cellular RIP1 inhibitory activity: HT-29 necroptosis (TNFα/SMAC mimetic/zVAD-FMK) CellTiter-Glo viability assay
Type: cell-based
Settings: HT-29 cells, TNF-α 10 ng/ml + SMAC mimetic 6 μM + zVAD-FMK 10 μM, 20 hours, geometric mean, read-out: EC50 Values of in vitro Cellular RIP1 Inhibitory Activity
Method: Compounds 1-99 (denoted as Cmpd Nos. 1 through 99 in Table 2 below) of the disclosure were tested for binding and cellular RIP1 inhibitory activity following the experimental procedures described below. Cell Seeding • 1. HT-29 cells were checked every day to make sure that they were healthy and growing as expected. They were subjected to sub-culturing when they were approximately 80% confluent. • 2. The culture medium, McCOY's 5 A medium (Gibco, Cat No. 16600-082) with 10% fetal bovine serum or FBS (Gibco, Cat No. 10099-141C), was pre-warmed in a 37° C. water bath for at least 30 min. • 3. When the cells had reached a desired level of confluency of 80% in a T75 flask, the medium was aspirated, and the cells were washed with warm phosphate buffered saline or PBS two times. • 4. 2-3 ml fresh warm trypsin (Gibco, Cat No. 25200-056) solution was added to the washed cells. The flask with the cells was transferred to a 37° C. incubator. • 5. After 5 minutes, the side of the flask was tapped, and the flask was examined under a microscope for detachment of the cells to the flask. If necessary, the cells were kept in the incubator for an additional 5-10 minutes, with occasional tapping, until lifting was complete. • 6. The trypsin reaction was neutralized by transferring 6-9 ml cell culture medium to sterile 15 ml conical tubes, and by centrifuging the cell culture at 300×g for 7 minutes to pellet the cells (supernatant decanted). • 7. The cells were resuspended in fresh cell culture medium and the cell counting was performed using a hemocytometer. • 8. 100 μl of the resuspended cell culture medium containing ˜5,000 cells were transferred into each well of the sterile 96-well cell culture plate (Corning 3903) and cultured overnight at 37° C. with 5% CO2. Compound Titration and Treatment • 1. All test compounds were dissolved in DMSO (Dimethyl sulfoxide) to create a 20 mM stock. • 2. 3 μl of each compound 20 mM stock was mixed with 27 μl DMSO, and the compound solution was further diluted at a titration ratio of 1:3 (20 μl compound solution+40 μl DMSO) till the 10 points end. • 3. All culture medium was removed from assay plates filled with HT-29 cell cultures. […] 0.5 μL of the diluted compound solution was added to the corresponding 96-well assay plates. • 5. The assay plates were incubated for 20 hours at 37° C. with 5% CO2. Cell Viability Detection • 1. The CellTiter-Glo® Luminescent Cell Viability Assay was employed to detect the ATP levels of viable HT-29 cells. • 2. The CellTiter-Glo® buffer and the lyophilized substrate were equilibriated to room temperature prior to use. • 3. The CellTiter-Glo® substrate was resuspended with CellTiter-Glo® buffer, then mixed by gently vortexing to obtain a homogeneous solution. • 4. 20 μl the enzyme/substrate mixture was transferred by multi-channel pipetting into 96-well assay plates. • 5. The assay plates were placed on an orbital shaker and the contents were shaken for 3 minutes to induce cell lysis. • 6. The assay plates were incubated at room temperature for 10 minutes to stabilize the luminescent signal. • 7. The luminescence signals were read and recorded with EnVision. • 8. The geometric mean EC50 values were calculated from 10 points response dose with duplicates. In Table 2, activity is provided as follows: +++=0.1 nM≤EC50<100 nM; ++=100 nM≤EC50<1000 nM; +=1000 nM≤EC50<10000 nM.

Compound | EC50 [nM]
[2H]C([2H])([2H])N(C(=O)C1CCN(c2nc(-c3c(C)cnn3C)ncc2F)CC1)C([2H])([2H])c1cc(F)cc(F)c1F [Compound 73, 1-(2-(1,4-dimethyl-1H-pyrazol-5-yl)-5-fluoropyrimidin-4-yl)-N-(methyl-d3)-N-((2,3,5-trifluorophenyl)methyl-d2)piperidine-4-carboxamide] | 0.1 to 100
[2H]C([2H])(NC(=O)C1CCN(c2ncc(F)c(-c3nnc(C)s3)n2)CC1)c1cc(F)cc(F)c1F [Compound 61, 1-(5-fluoro-4-(5-methyl-1,3,4-thiadiazol-2-yl)pyrimidin-2-yl)-N-((2,3,5-trifluorophenyl)methyl-d2)piperidine-4-carboxamide] | 0.1 to 100
Cc1cnn(C)c1-c1nc(N2CCC(C(=O)N(O)Cc3cncc(F)c3)CC2)ncc1F [Compound 37, 1-(4-(1,4-dimethyl-1H-pyrazol-5-yl)-5-fluoropyrimidin-2-yl)-N-((5-fluoropyridin-3-yl)methyl)-N-hydroxypiperidine-4-carboxamide] | 0.1 to 100
Cc1nc(C)n(-c2nc(N3CCC(C(=O)N(O)Cc4cc(F)cc(F)c4)CC3)ncc2F)n1 [Compound 1, N-(3,5-difluorobenzyl)-1-(4-(3,5-dimethyl-1H-1,2,4-triazol-1-yl)-5-fluoropyrimidin-2-yl)-N-hydroxypiperidine-4-carboxamide] | 0.1 to 100
Cc1cnn(C)c1-c1nc(N2CCN(C(=O)N(O)Cc3cc(F)cc(F)c3)CC2)ncc1F [Compound 29, N-(3,5-difluorobenzyl)-4-(4-(1,4-dimethyl-1H-pyrazol-5-yl)-5-fluoropyrimidin-2-yl)-N-hydroxypiperazine-1-carboxamide] | 0.1 to 100
Cc1cnn(C)c1-c1nc(N2CCC(C(=O)N(O)Cc3ncccc3Cl)CC2)ncc1F [Compound 9, N-((3-chloropyridin-2-yl)methyl)-1-(4-(1,4-dimethyl-1H-pyrazol-5-yl)-5-fluoropyrimidin-2-yl)-N-hydroxypiperidine-4-carboxamide] | 0.1 to 100
Cc1cnn(C)c1-c1nc(N2CCC(C(=O)N(O)Cc3ccccn3)CC2)ncc1F [Compound 31, 1-(4-(1,4-dimethyl-1H-pyrazol-5-yl)-5-fluoropyrimidin-2-yl)-N-hydroxy-N-(pyridin-2-ylmethyl)piperidine-4-carboxamide] | 0.1 to 100
Cc1cnn(C)c1-c1nc(N2CCC(C(=O)N(O)Cc3cncc(C#N)c3)CC2)ncc1F [Compound 52, N-((5-cyanopyridin-3-yl)methyl)-1-(4-(1,4-dimethyl-1H-pyrazol-5-yl)-5-fluoropyrimidin-2-yl)-N-hydroxypiperidine-4-carboxamide] | 0.1 to 100
Cc1nc(C)n(-c2nc(N3CCC(C(=O)N(C)Cc4cc(F)cc(F)c4F)CC3)ncc2F)n1 [Compound 65, 1-(4-(3,5-dimethyl-1H-1,2,4-triazol-1-yl)-5-fluoropyrimidin-2-yl)-N-methyl-N-(2,3,5-trifluorobenzyl)piperidine-4-carboxamide] | 0.1 to 100
Cc1cnn(C)c1-c1nc(N2CCC(C(=O)N(C)Cc3nccs3)CC2)ncc1F [Compound 95, 1-(4-(1,4-dimethyl-1H-pyrazol-5-yl)-5-fluoropyrimidin-2-yl)-N-methyl-N-(thiazol-2-ylmethyl)piperidine-4-carboxamide] | 0.1 to 100
Cc1cnn(C)c1-c1nc(N2CCC(C(=O)NCc3nccs3)CC2)ncc1F [Compound 59, 1-(4-(1,4-dimethyl-1H-pyrazol-5-yl)-5-fluoropyrimidin-2-yl)-N-(thiazol-2-ylmethyl)piperidine-4-carboxamide] | 100 to 1000
Cc1cnn(C)c1-c1nc(N2CCC(C(=O)NCc3cscn3)CC2)ncc1F [Compound 57, 1-(4-(1,4-dimethyl-1H-pyrazol-5-yl)-5-fluoropyrimidin-2-yl)-N-(thiazol-4-ylmethyl) piperidine-4-carboxamide] | 100 to 1000
CCN(Cc1sc(C)nc1C)C(=O)C1CCN(c2ncc(F)c(-c3c(C)cnn3C)n2)CC1 [Compound 70, 1-(4-(1,4-dimethyl-1H-pyrazol-5-yl)-5-fluoropyrimidin-2-yl)-N-((2,4-dimethylthiazol-5-yl)methyl)-N-ethylpiperidine-4-carboxamide] | 1000 to 10000
Cn1ncnc1-c1nc(N2CCC(C(=O)N(O)Cc3cc(F)cc(F)c3)CC2)ncc1F [Compound 15, N-(3,5-difluorobenzyl)-1-(5-fluoro-4-(1-methyl-1H-1,2,4-triazol-5-yl)pyrimidin-2-yl)-N-hydroxypiperidine-4-carboxamide] | 0.1 to 100
Cc1cnn(C)c1-c1nc(N2CCC(C(=O)N(O)Cc3ccccc3)CC2)ncc1F [Compound 33, N-benzyl-1-(4-(1,4-dimethyl-1H-pyrazol-5-yl)-5-fluoropyrimidin-2-yl)-N-hydroxypiperidine-4-carboxamide] | 0.1 to 100
Cc1csc(CN(C)C(=O)C2CCN(c3ncc(F)c(-c4c(C)cnn4C)n3)CC2)n1 [Compound 71, 1-(4-(1,4-dimethyl-1H-pyrazol-5-yl)-5-fluoropyrimidin-2-yl)-N-methyl-N-((4-methylthiazol-2-yl)methyl)piperidine-4-carboxamide] | 0.1 to 100
Cc1nc(C)n(-c2nc(N3CCC(C(=O)N(O)Cc4ccccn4)CC3)ncc2F)n1 [Compound 7, 1-(4-(3,5-dimethyl-1H-1,2,4-triazol-1-yl)-5-fluoropyrimidin-2-yl)-N-h ydroxy-N-(pyridin-2-ylmethyl)piperidine-4-carboxamide] | 100 to 1000
Cc1cnn(C)c1-c1nc(N2CCC(C(=O)N(O)Cc3cnco3)CC2)ncc1F [Compound 23, 1-(4-(1,4-dimethyl-1H-pyrazol-5-yl)-5-fluoropyrimidin-2-yl)-N-hydroxy-N-(oxazol-5-ylmethyl)piperidine-4-carboxamide] | 0.1 to 100
Cc1csc(CNC(=O)C2CCN(c3ncc(F)c(-c4c(C)cnn4C)n3)CC2)n1 [Compound 47, 1-(4-(1,4-dimethyl-1H-pyrazol-5-yl)-5-fluoropyrimidin-2-yl)-N-((4-methylthiazol-2-yl)methyl)piperidine-4-carboxamide] | 100 to 1000
Cc1cnn(C)c1-c1nc(N2CCC(C(=O)N(O)Cc3cnsc3)CC2)ncc1F [Compound 51] | 0.1 to 100
Cn1ncnc1-c1nc(N2CCC(F)(C(=O)N(O)Cc3cc(F)cc(F)c3)CC2)ncc1F [Compound 19, N-(3,5-difluorobenzyl)-4-fluoro-1-(5-fluoro-4-(1-methyl-1H-1,2,4-triazol-5-yl)pyrimidin-2-yl)-N-hydroxypiperidine-4-carboxamide] | 0.1 to 100
Cc1cnn(C)c1-c1nc(N2CCC(C(=O)N(C)Cc3nc(C)c(C)s3)CC2)ncc1F [Compound 90, 1-(4-(1,4-dimethyl-1H-pyrazol-5-yl)-5-fluoropyrimidin-2-yl)-N-((4,5-dimethylthiazol-2-yl)methyl)-N-methylpiperidine-4-carboxamide] | 0.1 to 100
